Results from patent US20230302071A1, “ANTIDEPRESSANT COMPOSITION CONTAINING PLEUROTUS ERYNGII EXTRACT AS ACTIVE INGREDIENT” (KOREA UNIVERSITY RESEARCH AND BUSINESS FOUNDATION, priority 2020, published 2023).

Tests used:
mice = test: Forced swimming test (FST), immobility time; assay type: in vivo; conditions: intraperitoneal, each sample 20 mg/kg, 30 minutes before test, 4-minute period, FIG. 5
Description: In order to verify whether the fractions of the Pleurotus eryngii extract according to the present invention actually have antidepressant efficacy, a forced swimming test was performed using experimental animals. The antidepressant efficacy was determined by measuring the immobility time during a forced swimming test, and the less the immobility time, the greater the antidepressant efficacy. To this end, mice were intraperitoneally injected with each of the ethanol extract of Pleurotus eryngii according to the present invention and the primary fraction and the secondary fraction of the ethanol extract, after which the immobility time during a forced swimming test was measured. Each sample was injected in an amount of 20 mg/kg into experimental mice. Also, a Prozac-administered group was used as a positive control. Four mice (n=4) were intraperitoneally injected with each sample and then allowed to stand for 30 minutes, after which the mice were submerged in water for 6 minutes and then washed for a while, water in the water tank was exchanged, and the mice were placed again in the water tank for 4 minutes to conduct this experiment. Statistical processing was performed by measuring the immobility time during the 4-minute experimental period.

[1] = tested on: serotonin receptor-mediated signaling in AGS cell line; test: Serotonin receptor-mediated signaling in AGS cell line by Western blotting (pErk, pJNK); assay type: cell-based, human; conditions: FIG. 4
Description: Whether the fractions of the Pleurotus eryngii extract according to the present invention were involved in serotonin receptor-mediated signaling by treating an AGS cell line known to overexpress serotonin receptors with the fractions of the Pleurotus eryngii extract according to the present invention was evaluated using Western blotting. Here, an anti-pERK antibody, anti-Erk antibody, anti-pJNK antibody, anti-JNK antibody, and anti-α Tubulin antibody were used for western blotting.

CNCCC(Oc1ccc(C(F)(F)F)cc1)c1ccccc1 (stereo not drawn) [Prozac]
reduction in immobility time compared to negative control (mice): 24%

NCCc1c[nH]c2ccc(O)cc12 [serotonin]
expression of phosphorylated pErk [1]: increased
expression of phosphorylated pJNK [1]: increased
